Tested on: snoring of a treated person
Experiment: anti-snoring effect when applied in the pharynx via the mouth
Type: in vivo
Details: active component; test details not given
From the text: The invention provides for this purpose a composition for reducing snoring, comprising at least an active quantity of at least one active component with astringent properties and a physiologically acceptable excipient. Such a composition is preferably applied in the pharynx. […] The composition according to the invention can be applied usefully not only in the domestic domain but also in professional situations where a plurality of people must necessarily sleep in the same space, such as in a dormitory, a hospital or military barracks. […] All formulations are based on water: the shown percentages by weight are thus supplemented to 100% with water. Composition A is a liquid composition which can be used for applying with a spray or as droplets. Composition B is a gel formulation. Composition C is a foam.

C[C@@H]1C[C@H]2OC(=O)[C@@]3(C)CCC[C@@](C)([C@@H]23)[C@@]1(O)CCc1ccoc1 [Marrubiin, 6-(2-furan-3-yl-ethyl)-6-hydroxy-2a,5a,7-trimethyldekahydronafto[1,8-bc]furan-2-on]
anti-snoring effect / effects on the level of snoring of a treated person: particularly good anti-snoring effect
